This note sets out measurements from US20250243160A1, “INDOLE DERIVATIVES FOR TARGETING AUTOPHAGY” (Automera PTE. LTD, priority 2024, published 2025).

Sequence of Recombinant p62 protein (Q13501 whole entry, species assumed): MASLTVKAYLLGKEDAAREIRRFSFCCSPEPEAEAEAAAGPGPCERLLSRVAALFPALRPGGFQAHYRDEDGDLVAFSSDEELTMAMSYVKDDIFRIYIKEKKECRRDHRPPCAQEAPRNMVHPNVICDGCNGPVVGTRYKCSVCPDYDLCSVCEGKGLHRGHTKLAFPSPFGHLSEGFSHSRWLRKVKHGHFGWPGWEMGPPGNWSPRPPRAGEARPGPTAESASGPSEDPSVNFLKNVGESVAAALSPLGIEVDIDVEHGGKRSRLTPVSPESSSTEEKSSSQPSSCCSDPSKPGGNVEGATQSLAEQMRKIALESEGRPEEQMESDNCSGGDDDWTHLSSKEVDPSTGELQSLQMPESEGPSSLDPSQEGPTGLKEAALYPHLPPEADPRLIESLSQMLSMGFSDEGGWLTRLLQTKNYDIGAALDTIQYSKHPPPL

In one assay the target is Recombinant p62 protein (Homo sapiens, UniProt Q13501). As to the kind of experiment: Surface plasmon resonance (SPR) compound binding to p62. The note with it: 15° C. How it is done:
Recombinant p62 protein was buffer exchanged into Biacore SPR running buffer (Cytiva 100671) using the Slide-A-Lyzer Mini Dialysis system 7K MWCO (Thermo Fisher Scientific, Cat no. 69560). The final protein concentration was determined using the Nanodrop One spectrophotometer (Thermo Fisher Scientific, cat no. ND-ONE-W), with calibration for the dialysis buffer.
The prepared protein was diluted in sodium acetate buffer (NaAc, pH 5.5, Cytiva) to concentrations ranging from approximately 0.25-40 μg/mL. Post-immobilization, the protein required approximately 16 hours of equilibration in running buffer supplemented with 1% DMSO at 15° C. to ensure adequate surface equilibration and protein reorganization.
All SPR experiments were conducted at a constant temperature of 15° C. The SPR chip surface was activated using EDC/NHS for a contact time of 6-10 min at a flow rate of 10 μL/min. This was followed by protein immobilization for 2100 seconds and ethanolamine capping for 420 seconds, both at the same flow rate. Immediately after immobilization, the NH2-REEE peptide was analyzed in Single Cycle Kinetics mode (SCK) to verify surface activity, ensuring it binds the sample with the published affinity (˜20 μM by SPR).
For general compound binding studies, experiments were performed at 15° C. using a running buffer composed of 10 mM HEPES, 150 mM NaCl, 1 mM DTT, 0.05% Tween 20, and 1% DMSO at pH 7.4. The test compound was initially prepared at a 20 mM concentration in DMSO and subsequently titrated in 2-fold dilutions. For each assay, 2 μL of the compound was mixed with 198 μL of the running buffer, and the mixture was thoroughly pipetted approximately 15 times for homogenization.
A series of blank injections (0 μM concentration) were included for double referencing, with at least 8 or 16 per plate depending on the format. Typical injection parameters were 120 seconds for association and 180 seconds for dissociation at a flow rate of […]. A four-point solvent correction was prepared with DMSO concentrations ranging from 2% to 0.5% in the buffer. Post each compound injection, the system's needles were washed with 50% DMSO.
Analysis of the SPR data was conducted using the Cytiva Evaluation software. The binding levels at the late time-point of each interaction were corrected for reference, then normalized to percentage bound values to account for variations in immobilization levels, protein molecular weight, and compound molecular weight.
Compound binding studies were carried out according to experimental procedures above and SPR % occupancy was determined and summarized in Table 7.
For the molecule `OCCNCc1ccnc2c1ccn2Cc1ccccc1` [Compound 50], the receptor occupancy at 100 µM is less than 30%.
As for `O=C(c1ccccc1)n1ccc2c(CNCCO)cccc21` [Compound 16, (4-(((2-hydroxyethyl)amino)methyl)-1H-indol-1-yl)(phenyl)methanone], the receptor occupancy at 100 µM is more than 70%.
With `OCCNCc1ccc2c(ccn2Cc2ccccc2)c1` [Compound 38], the receptor occupancy at 100 µM was in the range of 30 to 70%.
On to `OCCNCc1cccc2c1ccn2CC1CCOCC1` [Compound 24], for which the receptor occupancy at 100 µM lay within 30 to 70%.
On the same count and under the same terms, the result for `O=C(CCO)Nc1cccc2c1ccn2Cc1ccccc1` [Compound 8] reads less than 30%; that for `CC(=O)N1CCC(COCCNCc2cccc3c2ccn3Cc2ccccc2)CC1` [Compound 85, 1-(4-((2-(((1-benzyl-1H-indol-4-yl)methyl)amino)ethoxy)methyl)piperidin-1-yl)ethan-1-one], less than 30%; that for `CNCCOCc1cccc2c1ccn2Cc1ccccc1` [Compound 5, 2-((1-benzyl-1H-indol-4-yl)methoxy)-N-methylethan-1-amine], 30 to 70%.
The same measure, in the same setting: the result for `OCCNCc1cccc2c1CN(Cc1ccccc1)C2` [Compound 42, 2-(((2-benzylisoindolin-4-yl)methyl)amino)ethan-1-ol] reads less than 30%.
Still for that read-out and setting: the same measure for `OCCNCc1cccc2c1ccn2Cc1ccncc1` [Compound 14]: less than 30%.
On to `OCCNCc1ccc2ccn(Cc3ccccc3)c2c1` [Compound 2], for which the receptor occupancy at 100 µM was less than 30%.
Still for that read-out and setting: the result for `O=C(NCCO)NCc1cccc2c1ccn2Cc1ccccc1` [Compound 53, 1-((1-benzyl-1H-indol-4-yl)methyl)-3-(2-hydroxyethyl)urea] reads less than 30%; that for `OCCNCc1cccc2c1ccn2CCc1cccnc1` [Compound 29], less than 30%; that for `O=C(CCO)NCc1cccc2c1ccn2Cc1ccccc1` [Compound 52], less than 30%.
With `O=S(=O)(c1ccccc1)n1ccc2c(CNCCO)cccc21` [Compound 17, 2-(((1-(phenylsulfonyl)-1H-indol-4-yl)methyl)amino)ethan-1-ol], the receptor occupancy at 100 µM lay within 30 to 70%.
The same measure, in the same setting: the same measure for `O=C(NCCO)c1cccc2c1ccn2Cc1ccccc1` [Compound 4, 1-benzyl-N-(2-hydroxyethyl)-1H-indole-4-carboxamide]: less than 30%; for `OCCNCc1cccc2c1ccn2CC1CCCCN1` (stereo not drawn) [Compound 54]: less than 30%.
The same measure, in the same setting: the result for `CC(O)CNCc1cccc2c1ccn2Cc1ccccc1` (stereo not drawn) [Compound 3] reads 30 to 70%; that for `OCCNCc1cccc2c1ccn2Cc1ccccc1Cl` [Compound 12], 30 to 70%; that for `CC(C)(C)OC(=O)NCCOCCOCCOCCNCc1cccc2c1ccn2Cc1ccc(F)cc1` [Compound 84, tert-butyl (1-(1-(4-fluorobenzyl)-1H-indol-4-yl)-5,8,11-trioxa-2-azatridecan-13-yl)carbamate], less than 30%.
Same read-out and setting: the same measure for `COc1ccc(Cn2ccc3c(CNCCO)cccc32)cc1` [Compound 15]: 30 to 70%; for `O=C(CO)NCc1cccc2c1ccn2Cc1ccc(F)cc1` [Compound 46]: 30 to 70%; for `CC(C)NCCN1Cc2cccc(CNCCO)c2C1` [Compound 43]: less than 30%.
`OC1CC(NCc2cccc3c2ccn3Cc2ccccc2)C1` (stereo not drawn) [Compound 7]: the receptor occupancy at 100 µM is less than 30%.
Same read-out and setting: the result for `OCCNCc1cccc2c1ccn2CC1CCNCC1` [Compound 25, 2-(((1-(piperidin-4-ylmethyl)-1H-indol-4-yl)methyl)amino)ethan-1-ol] reads less than 30%; that for `OCCNCc1cccc2c1CCN2Cc1ccccc1` [Compound 40, 2-(((1-benzylindolin-4-yl)methyl)amino)ethan-1-ol], less than 30%; that for `OCCNCc1c(Cl)ccc2c1ccn2Cc1ccccc1` [Compound 36], 30 to 70%.
As for `OCCNCc1cccc2c1ccn2Cc1ncc[nH]1` [Compound 22], the receptor occupancy at 100 µM is less than 30%.
On the same count and under the same terms, the same measure for `CC(C)OCCNCc1cccc2c1ccn2Cc1ccccc1` [Compound 47]: less than 30%; for `OCCNCc1cncc2c1ccn2Cc1ccccc1` [Compound 51]: less than 30%.

In the next assay the test system is p62 puncta. The assay can be described thus: p62 puncta immunocytochemistry imaging in HeLa cells. The format is cell-based. The note with it: 24 hours treatment, relative to vehicle control (DMSO). As for the experimental part: HeLa cells were seeded in coated 96-well plates (10,000 cells) and allowed to adhere overnight. After 24 hours of treatment with either vehicle (DMSO) or test compounds, the media was discarded, and cells were rinsed with ice-cold 1×PBS before fixation by 4% formaldehyde or paraformaldehyde for 20 min. Cells were then washed with 1×PBS and permeabilized with 0.1% Triton X-100 in PBS for 20 min and blocked with Blocking Buffer in PBS for 1 hour. The cells were incubated thereafter for 1 hour with anti-p62 primary antibody in Blocking Buffer, followed by incubation with secondary antibody for 1 hour. DAPI dye was used to visualize nuclei of fixed cells. The blocking buffer used were 5% Fetal Bovine Serum (FBS, ThermoFIsher Scientific, 10270106) and Li-cor Intercept (PBS) Blocking Buffer (Li-cor, 927-70001). The primary antibody used was mouse anti-p62 primary antibody (Novus Biologicals, H00008878-M01). The secondary antibodies used were goat anti-mouse Alexa Fluor Plus 488 secondary antibody (Invitrogen, GOXMS) and goat anti-mouse Alexa Fluor 488 secondary antibody (Invitrogen, A-11029). The DAPI dyes used were DAPI dye (Invitrogen, 62248) and DAPI dye (Invitrogen, D1306).
For the EVOS M7000 System, cells were imaged on the EVOS M7000 microscope using a 20× air objective (Nikon, N.A 0.45). DAPI and p62 channels were illuminated with LED light cubes using integrated hard-coated filter sets for DAPI (357/447 nm) and GFP (470/525 nm) respectively. Images were analysed for p62 puncta count on the Celeste 6.0 software.
For the Operetta CLS System, cells were imaged on the Operetta CLS using a 63× water objective on the DAPI and Alexa 488 channels. Images were analysed for p62 puncta count on the Harmony 5.1 software.
HeLa cells were treated with compounds for 24 hours to evaluate the effect of these compounds on p62 puncta activity. The resulting changes in levels of p62 puncta were assessed by imaging, either on the EVOS M7000 or Operetta CLS systems as described in experimental procedures. The fold change of p62 puncta levels induced by compound treatment relative to vehicle control (DMSO) was determined and summarized in Table 10.
With `CNCCOCc1cccc2c1ccn2Cc1ccccc1` [Compound 5, 2-((1-benzyl-1H-indol-4-yl)methoxy)-N-methylethan-1-amine], the “p62 puncta (fold change of p62 puncta levels)” value is on record as “+ (<2-fold change in p62 puncta levels relative to DMSO control)”.
Same read-out and setting: the same measure for `OCCNCc1cccc2c1ccn2CC1CCCCN1` (stereo not drawn) [Compound 54]: “++ (>2-fold change in p62 puncta levels relative to DMSO control)”.
Still for that read-out and setting: the result for `CC(O)CNCc1cccc2c1ccn2Cc1ccccc1` (stereo not drawn) [Compound 3] reads “+ (<2-fold change in p62 puncta levels relative to DMSO control)”.
The same measure, in the same setting: the same measure for `OC1CC(NCc2cccc3c2ccn3Cc2ccccc2)C1` (stereo not drawn) [Compound 7]: “+ (<2-fold change in p62 puncta levels relative to DMSO control)”.
